# Data: patent publication US6599541B1, “Composition for treatment of drug resistant bacterial infections and a method of treating drug resistant bacterial infections” (priority 1999, dated 2003)
# How the values were obtained:
# [1] = highest serum concentration reached after the maximum therapeutic dose in-vivo; cited from earlier work
# [2] = tested on: Staphylococcus aureus; experiment: Agar Dilution Method of Sensitivity testing, NE alone and NE + antibiotic; format: cell-based; conditions: resistant S. aureus cultures, 48 hours
# Protocol: (§1) Two kinds of investigations were carried-out using these bacterial isolates—using an Agar Dilution Method of Sensitivity testing.
# i) To ascertain whether, NE can work as an antibacterial substance on its own. For this purpose, a stock-solution of NE was prepared and was sterilized as described in the preliminary experiments.
# ii) This stock-solution was dispensed into the culture medium (Mueller Hinton Agar) so as to provide while; the medium was in liquid form. Four different concentrations of NE, viz.
# iii) This medium was poured into petri dishes and allowed to solidify. Resistant cultures were inoculated on to these plates and after incubation for 48 hours, the growth patterns were assessed.
# iv) The experiments were run in triplicate, for each concentration—as per standard practices of microbiological testing procedures.
# (§2) i) The culture medium (Mueller Hinton Agar) was melted and distributed into a number of test tubes.
# (§3) ii) The stock solution of NE was dispensed into these test tubes in four different concentrations viz.
# (§4) iii) In the same medium, one of the antibiotics under investigation was also added so as to provide a variable concentration (at break-even point concentration) as described below:
# (§5) iv) The culture medium containing NE extract+the antibiotic were poured into petri dishes and allowed to solidify.
# (§6) v) The resistant bacterial strains were inoculated onto these plates, incubated for 48 hours and the growth patterns were studied on each plate.
# These cultures were obtained various clinical samples, such as sputum, non-healing infected wounds, throat swabs etc.
# [3] = tested on: Pseudomonas aerugenosa; experiment: Agar Dilution Method of Sensitivity testing, NE + antibiotic; format: cell-based; conditions: for Growth Patterns after addition of NE: no. of cultures +++ (growth) / Growth Patterns after addition of NE: no. of cultures −−− (inhibition of growth): 16 resistant Pseudomonas strains, 48 hours
# Protocol: as §1, §2, §3, §4, §5, §6
# [4] = antibiotic at break-even point + NE 125 μg/mL
# [5] = antibiotic at break-even point + NE 250 μg/mL
# [6] = antibiotic at break-even point + NE 500 μg/mL
# [7] = antibiotic at break-even point + NE 1000 μg/mL
Compound,break point [1],"Growth Patterns after addition of NE: no. of cultures +++ (growth) [2, 4]","Growth Patterns after addition of NE: no. of cultures −−− (inhibition of growth) [2, 4]","Growth Patterns after addition of NE: no. of cultures +++ (growth) [2, 5]","Growth Patterns after addition of NE: no. of cultures −−− (inhibition of growth) [2, 5]","Growth Patterns after addition of NE: no. of cultures +++ (growth) [2, 6]","Growth Patterns after addition of NE: no. of cultures −−− (inhibition of growth) [2, 6]","Growth Patterns after addition of NE: no. of cultures +++ (growth) [2, 7]","Growth Patterns after addition of NE: no. of cultures −−− (inhibition of growth) [2, 7]","Growth Patterns after addition of NE: no. of cultures +++ (growth) [3, 4]","Growth Patterns after addition of NE: no. of cultures −−− (inhibition of growth) [3, 4]","Growth Patterns after addition of NE: no. of cultures +++ (growth) [3, 5]","Growth Patterns after addition of NE: no. of cultures −−− (inhibition of growth) [3, 5]","Growth Patterns after addition of NE: no. of cultures +++ (growth) [3, 6]","Growth Patterns after addition of NE: no. of cultures −−− (inhibition of growth) [3, 6]","Growth Patterns after addition of NE: no. of cultures +++ (growth) [3, 7]","Growth Patterns after addition of NE: no. of cultures −−− (inhibition of growth) [3, 7]","isolates sensitized to the antibiotic by NE ([3]; of 16 resistant strains, NE + antibiotic)"
CC1=C(C(=O)O)N2C(=O)[C@@H](NC(=O)[C@H](N)c3ccccc3)[C@H]2SC1 [Cephalexin],18 µg/mL,81,21,81,21,81,21,81,21,,,,,,,,,
CC1(C)S[C@@H]2[C@H](NC(=O)[C@H](N)c3ccc(O)cc3)C(=O)N2[C@H]1C(=O)O [Amoxacillin],16 µg/mL,,,,,,,,,,,,,,,,,
CCN1CCN(C(=O)N[C@@H](C(=O)N[C@@H]2C(=O)N3[C@@H]2SC(C)(C)[C@@H]3C(=O)O)c2ccccc2)C(=O)C1=O [Piperacillin],,,,,,,,,,3,13,3,13,3,13,3,13,13
